Measured values published in patent US20220022457A1, “Microbicide Ammonium-Imidazolium Oligomers and Their Anti-Fungal Compositions” (AGENCY FOR SCIENCE, TECHNOLOGY AND RESEARCH, priority 2018, published 2022).
In brackets after ≈: the same amount, converted by molar mass. Several values for one entry are separate records, joined by “and”; a condition that tells them apart may be missing. Equal values may be shown once.

Key:
[1] = test system: mouse red blood cells (RBCs); assay: Hemolysis study; format: cell-based; details: oligomer concentration giving 10% hemolysis, 1 h, 37° C.
Protocol: After 1 h incubation at 37° C., the mixture was centrifuged at 2000 rpm for 5 min. Aliquots (100 μl) of the supernatant were transferred to a 96-well plate. Hemolytic activity was determined as a function of hemoglobin release by measuring absorbance of the supernatant at 576 nm using a microplate reader. A control solution that contained only PBS was used as a reference for 0% hemolysis. Absorbance of red blood cells lysed with 0.5% Triton-X was taken as 100% hemolysis. The oligomer concentration which results in 10% hemolysis is indicated as HC10 in Table 1. The data were expressed as mean and S.D. of four replicates. % Hemolysis=[OD576 nm (polymer)−OD576 nm (PBS)]/[OD576 nm (Triton-X)−OD576 nm (PBS)]×100%

C. albicans = assay: Checkerboard assay of oligomers with triazoles (FIC); format: cell-based; details: Candida albicans; for FIC with Fluconazole: calculated from lowest concentration inhibiting at least 50% growth; for Alone MIC50 component A: oligomer alone
Protocol: […]. […] A row and a column in which a serial dilution of each agent was present alone were also prepared for MIC test. Then each solution in the well plate was inoculated with 100 μL of logarithmically grown 10^6 cells/ml C. albicans cells in the 96-well plate. The plate also contained a column with C. albicans only as control (100% cell growth). The cells were incubated at room temperature for 24 h with constant shaking, after which cell growth (i.e. the O.D. at 600 nm) was monitored with a microplate reader (TECAN) Synergy between fluconazole and oligomers was determined by calculating the fractional inhibitory concentration index ([…] was calculated as follows: FIC=(MIColigomer A in combination/MIColigomer A alone)+(MICazole B in combination/MICazole B alone). […] The interaction of selected oligomers with other triazoles such as itraconazole and voriconazole was also investigated using the checkerboard dilution method. For comparison, the interaction of the selected oligomer with a non-triazole antifungal agent […] was also investigated.

[2] = test system: Candida albicans (ATCC 10231, fungus); assay: Minimum inhibitory concentration, microdilution assay; format: cell-based; details: for MIC: ATCC10231; for MIC / MIC C.A.: Candida albicans ~10^6 CFU/ml, YMB, room temperature, no visible growth; for MIC50 C.A. (value in brackets): Candida albicans, concentration inhibiting 50% fungal growth
Protocol: Staphylococcus aureus (ATCC 6538, Gram-positive), Escherichia coli (ATCC 8739, Gram-negative), Pseudomonas aeruginosa (ATCC 9027, Gram-negative), and Candida albicans (ATCC 10231, fungus) were used as representative microorganisms to challenge the antimicrobial functions of the oligomers. All bacteria and fungus were frozen at -80° C., and were grown overnight at 37° C. in Mueller Hinton Broth (MHB, BD Singapore) prior to experiments. Fungus was grown overnight at 22° C. in Yeast Mold Broth (YMB, BD Singapore). […] […] […] Medium solution containing microbial cells alone were used as control (100% microbial growth). The assay was performed in four replicates and the experiments were repeated at least two times.

[3] = Critical micelle concentration; format: physicochemical
[4] = test system: Pseudomonas aeruginosa (ATCC 9027, Gram-negative); assay: Minimum inhibitory concentration, microdilution assay; format: cell-based; details: lowest concentration with no visible growth; for MIC P.A.: 24 h
Protocol: (§1) Staphylococcus aureus (ATCC 6538, Gram-positive), Escherichia coli (ATCC 8739, Gram-negative), Pseudomonas aeruginosa (ATCC 9027, Gram-negative), and Candida albicans (ATCC 10231, fungus) were used as representative microorganisms to challenge the antimicrobial functions of the oligomers. All bacteria and fungus were frozen at -80° C., and were grown overnight at 37° C. in Mueller Hinton Broth (MHB, BD Singapore) prior to experiments. Fungus was grown overnight at 22° C. in Yeast Mold Broth (YMB, BD Singapore). […] The plates were incubated at 37° C. for 24 h with constant shaking speed at 300 rpm. […] Medium solution containing microbial cells alone were used as control (100% microbial growth). The assay was performed in four replicates and the experiments were repeated at least two times.

[5] = test system: Escherichia coli (ATCC 8739, Gram-negative); assay: as above; format: cell-based; details: lowest concentration with no visible growth; for MIC E.C.: 24 h
Protocol: as §1

[6] = test system: Staphylococcus aureus (ATCC 6538, Gram-positive); assay: as above; format: cell-based; details: lowest concentration with no visible growth; for MIC S.A.: 24 h
Protocol: as §1

Candida albicans = assay: Killing efficacy of selected oligomers at 62 μg/ml (FIG. 1); format: cell-based; details: 62 μg/ml; survivors at 24 h compared with 0 h
[7] = oligomer in combination with Fluconazole
[8] = oligomer with Fluconazole (Table 2)
[9] = triazole in combination with IDPBX8
[10] = triazole in combination with IDPPX8

Molecule | HC10 [1] [µg/mL] | FIC with Fluconazole (C. albicans) | CMC [3] [µg/mL] | MIC C.A. [2] [µg/mL] | MIC50 C.A. (value in brackets) [2] | MIC P.A. [4] [µg/mL] | MIC E.C. [5] [µg/mL] | MIC S.A. [6] [µg/mL] | other results
CCCCCCCC[n+]1ccn(Cc2ccc(C[n+]3ccn(Cc4ccc(C[n+]5ccn(Cc6ccccc6Cn6cc[n+](Cc7ccc(Cn8cc[n+](Cc9ccc(Cn%10cc[n+](CCCCCCCC)c%10)cc9)c8)cc7)c6)c5)cc4)c3)cc2)c1 [IBN-C8, reference compound] | >2000 | 2.00 | 226 |  |  |  |  |  | MIC [2]: 16 µg/mL; MIC ([4]; ATCC9027, 24 h): 16 µg/mL; MIC ([5]; ATCC8739, 24 h): 8 µg/mL; MIC ([6]; ATCC6538, 24 h): 4 µg/mL
CCCCCCCC[n+]1ccn(Cc2ccccc2C[N+]23CC[N+](Cc4ccccc4Cn4cc[n+](CCCCCCCC)c4)(CC2)CC3)c1.[Br-].[Br-].[Br-].[Br-] [IDIO8] | >2000 | 0.25 | 1667 | 62 | (32) μg/ml | 250 | 16 | 8 | 
C(=C\C[N+]12CC[N+](Cc3ccc(C[n+]4ccn(Cc5ccccc5)c4)cc3)(CC1)CC2)/C[N+]12CC[N+](Cc3ccc(C[n+]4ccn(Cc5ccccc5)c4)cc3)(CC1)CC2 [IDPBXb] | >2000 |  | 1732 | >1000 | (1000) μg/ml | >1000 | 62 | 125 | 
CCCCCCCC[N+]12CC[N+](C/C=C/C[N+]34CC[N+](CCCCCCCC)(CC3)CC4)(CC1)CC2.[Br-].[Br-].[Br-].[Br-] [DDB8] | >2000 | 0.25 | 1552 | 125 | (16) μg/ml | 125 | 8 | 4 | Fungistatic or fungicidal (Candida albicans): fungistatic
CCCCCCCC[n+]1ccn(CC=CC[N+]23CC[N+](CC=CCn4cc[n+](CCCCCCCC)c4)(CC2)CC3)c1.[Br-].[Br-].[Br-].[Br-] [IDIB8] | >2000 | 0.25 | 1829 | >500 | (32) μg/ml | 500 | 16 | 8 | 
CCCCCCCC[N+]12CC[N+](Cc3ccc(C[N+]45CC[N+](CCCCCCCC)(CC4)CC5)cc3)(CC1)CC2.[Br-].[Br-].[Br-].[Br-] [DDP8] | >2000 | 0.19 | 1896 | 500 | (31) μg/ml | 2000 | 16 | 16 | 
c1ccc(Cn2cc[n+](Cc3ccc(C[N+]45CC[N+](Cc6ccc(C[N+]78CC[N+](Cc9ccc(C[n+]%10ccn(Cc%11ccccc%11)c%10)cc9)(CC7)CC8)cc6)(CC4)CC5)cc3)c2)cc1 [IDPPXb] |  | 0.5 | 1860 | 2000 | (500) μg/ml | >1000 | 62 | 125 | 
CCCCCCCC[n+]1ccn(Cc2ccc(C[N+]34CC[N+](Cc5ccc(Cn6cc[n+](CCCCCCCC)c6)cc5)(CC3)CC4)cc2)c1.[Br-].[Br-].[Cl-].[Cl-] [IDIP8] | >2000 | 0.25 | 985 | 125 | (8) μg/ml | 1000 | 16 | 2 | 
CCCCCCCC[n+]1ccn(Cc2ccc(C[N+]34CC[N+](Cc5ccc(C[N+]67CC[N+](Cc8ccc(Cn9cc[n+](CCCCCCCC)c9)cc8)(CC6)CC7)cc5)(CC3)CC4)cc2)c1.[Br-].[Br-].[Br-].[Br-].[Br-].[Br-] [IDPPX8] | >2000 | 0.25 | 1552 | 62 | (8-31) μg/ml | 500 | 62 | 8 | Interaction when applied together with voriconazole (C. albicans): Synergy; Alone MIC50 component A (C. albicans): 16 µg/mL; Combined MIC50 component A (C. albicans; [7]): 2 µg/mL; Combined MIC50 component A (C. albicans; oligomer in combination with Itraconazole): 4 µg/mL; Combined MIC50 component A (C. albicans; oligomer in combination with Voriconazole): 4 µg/mL; FIC (C. albicans; [8]): 0.19; FIC (C. albicans; oligomer with Itraconazole): 0.50; FIC (C. albicans; oligomer with Voriconazole): 0.30; Fungistatic or fungicidal (Candida albicans): fungistatic
C[C@@H](c1ncncc1F)[C@](O)(Cn1cncn1)c1ccc(F)cc1F [Voriconazole, voriconazole, reference compound] |  |  |  |  |  |  |  |  | Combined MIC50 component B (C. albicans; [9]): 0.006 µg/mL; Combined MIC50 component B (C. albicans; [10]): 0.003 µg/mL; MIC [2]: 0.025 to 0.1 µg/mL (≈ 0.0716 to 0.286 µM)
CCCCCCCC[N+]12CC[N+](Cc3ccccc3C[N+]34CC[N+](CCCCCCCC)(CC3)CC4)(CC1)CC2.[Br-].[Br-].[Br-].[Br-] [DDO8] | >2000 | 0.38 | 3038 | 125 | (16) μg/ml | 62 | 8 | 4 | 
itraconazole [reference compound] |  |  |  | 0.016 to 0.03 |  |  |  |  | Alone MIC50 component B (C. albicans; triazole alone): 0.016 µg/mL and 0.03 µg/mL; Combined MIC50 component B (C. albicans; [9]): 0.015 µg/mL; Combined MIC50 component B (C. albicans; [10]): 0.004 µg/mL
CCCCCCCC[n+]1ccn(Cc2ccc(Cn3cc[n+](C/C=C/C[N+]45CC[N+](C/C=C/C[n+]6ccn(Cc7ccc(Cn8cc[n+](CCCCCCCC)c8)cc7)c6)(CC4)CC5)c3)cc2)c1.[Br-].[Br-].[Br-].[Br-].[Br-].[Br-] [IIDPBX8] | >2000 | 0.31 | 291 | 62 | (8) μg/ml | 250 | 62 | 4 | 
CCCCCCCC[n+]1ccn(Cc2ccc(Cn3cc[n+](Cc4ccc(C[N+]56CC[N+](C/C=C/C[N+]78CC[N+](Cc9ccc(C[n+]%10ccn(Cc%11ccc(Cn%12cc[n+](CCCCCCCC)c%12)cc%11)c%10)cc9)(CC7)CC8)(CC5)CC6)cc4)c3)cc2)c1.[Br-].[Br-].[Br-].[Br-].[Br-].[Br-].[Br-].[Br-] [IIDPPBX8] | >2000 | 1.00 | 727 | 31 | (2-8) μg/ml | 125 | 31 | 8 | Alone MIC50 component A (C. albicans): 2 µg/mL; Combined MIC50 component A (C. albicans; [7]): 1 µg/mL; FIC (C. albicans; [8]): 1.0
